Data as given in patent US9108930B2, “N1- and N2-carbamoyl-1,2,3-triazole serine hydrolase inhibitors and methods” (The Scripps Research Institute, priority 2011, dated 2015).
Where “and” joins values, the source holds several entries; their conditions need not be identical. Equal entries are not always repeated.

Experiments:
ABHD11 [1] = target: T1, ABHD11 (Mus musculus, UniProt Q8K4F5); assay: Gel-based competitive ABPP, mouse T-cell proteome in vitro; type: biochemical; settings: for IC50: in vitro, 30 minutes at 37° C.
T1 sequence (Q8K4F5 35-307): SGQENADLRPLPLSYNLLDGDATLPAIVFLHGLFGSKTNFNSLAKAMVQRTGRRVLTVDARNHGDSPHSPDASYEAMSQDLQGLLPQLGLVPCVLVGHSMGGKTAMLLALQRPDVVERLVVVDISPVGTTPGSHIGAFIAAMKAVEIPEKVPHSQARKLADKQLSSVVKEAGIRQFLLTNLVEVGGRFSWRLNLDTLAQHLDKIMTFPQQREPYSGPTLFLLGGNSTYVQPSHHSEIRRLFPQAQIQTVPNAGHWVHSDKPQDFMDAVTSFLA

PAFAH2 = PAFAH2 (Mus musculus, UniProt Q8VDG7); assay: as above; type: biochemical; settings: 30 minutes at 37° C.
Sequence of PAFAH2 (Q8VDG7 whole entry): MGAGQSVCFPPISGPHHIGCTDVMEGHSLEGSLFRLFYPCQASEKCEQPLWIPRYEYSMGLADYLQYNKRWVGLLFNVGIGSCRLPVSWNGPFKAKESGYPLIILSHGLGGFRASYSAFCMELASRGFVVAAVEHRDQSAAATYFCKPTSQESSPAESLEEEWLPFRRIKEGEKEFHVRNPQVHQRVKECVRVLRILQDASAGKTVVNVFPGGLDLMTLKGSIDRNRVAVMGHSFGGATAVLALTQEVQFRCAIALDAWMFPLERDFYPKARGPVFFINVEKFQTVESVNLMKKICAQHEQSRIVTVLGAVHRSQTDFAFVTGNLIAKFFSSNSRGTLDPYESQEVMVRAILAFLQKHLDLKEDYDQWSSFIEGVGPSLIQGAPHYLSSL

[2] = system: serine hydrolases in mouse brain proteome; assay: Selectivity profile by competitive ABPP (mouse brain proteome), DAGL series; type: biochemical
DAGLB = target: T2, DAGLB (Mus musculus, UniProt Q91WC9); assay: Gel-based ABPP assay against recombinant DAGLB (HEK293T-DAGLB lysates); type: biochemical; parameters: Full-length cDNAs encoding serine hydrolases were purchased from Open Biosystems; V5; host or cells: HEK293T; settings: for activity against DAGLB: recombinant
T2 sequence (Q91WC9 1-669): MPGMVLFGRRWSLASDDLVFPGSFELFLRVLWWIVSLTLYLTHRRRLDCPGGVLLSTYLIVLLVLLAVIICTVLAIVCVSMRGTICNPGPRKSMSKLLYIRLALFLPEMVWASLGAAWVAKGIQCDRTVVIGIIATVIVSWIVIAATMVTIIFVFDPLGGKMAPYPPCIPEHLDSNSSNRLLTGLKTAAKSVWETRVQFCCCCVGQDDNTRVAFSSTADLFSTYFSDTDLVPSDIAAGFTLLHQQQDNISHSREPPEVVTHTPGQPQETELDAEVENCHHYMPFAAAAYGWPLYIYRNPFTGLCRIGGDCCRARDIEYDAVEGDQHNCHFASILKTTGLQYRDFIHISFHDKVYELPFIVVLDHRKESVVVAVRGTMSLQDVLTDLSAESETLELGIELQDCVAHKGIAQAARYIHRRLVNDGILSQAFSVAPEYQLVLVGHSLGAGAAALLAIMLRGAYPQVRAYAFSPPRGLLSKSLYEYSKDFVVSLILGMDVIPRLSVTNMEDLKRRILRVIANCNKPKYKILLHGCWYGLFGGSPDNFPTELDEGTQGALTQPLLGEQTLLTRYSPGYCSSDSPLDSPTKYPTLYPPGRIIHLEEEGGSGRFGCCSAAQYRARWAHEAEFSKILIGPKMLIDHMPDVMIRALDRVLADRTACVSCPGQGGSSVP

APEH = target: T3, APEH (Mus musculus, UniProt Q8R146); assay: Gel-based competitive ABPP, mouse T-cell proteome in vitro; type: biochemical; settings: IC50 for APEH, in vitro, 30 minutes at 37° C., mouse
T3 sequence (Q8R146 1-732): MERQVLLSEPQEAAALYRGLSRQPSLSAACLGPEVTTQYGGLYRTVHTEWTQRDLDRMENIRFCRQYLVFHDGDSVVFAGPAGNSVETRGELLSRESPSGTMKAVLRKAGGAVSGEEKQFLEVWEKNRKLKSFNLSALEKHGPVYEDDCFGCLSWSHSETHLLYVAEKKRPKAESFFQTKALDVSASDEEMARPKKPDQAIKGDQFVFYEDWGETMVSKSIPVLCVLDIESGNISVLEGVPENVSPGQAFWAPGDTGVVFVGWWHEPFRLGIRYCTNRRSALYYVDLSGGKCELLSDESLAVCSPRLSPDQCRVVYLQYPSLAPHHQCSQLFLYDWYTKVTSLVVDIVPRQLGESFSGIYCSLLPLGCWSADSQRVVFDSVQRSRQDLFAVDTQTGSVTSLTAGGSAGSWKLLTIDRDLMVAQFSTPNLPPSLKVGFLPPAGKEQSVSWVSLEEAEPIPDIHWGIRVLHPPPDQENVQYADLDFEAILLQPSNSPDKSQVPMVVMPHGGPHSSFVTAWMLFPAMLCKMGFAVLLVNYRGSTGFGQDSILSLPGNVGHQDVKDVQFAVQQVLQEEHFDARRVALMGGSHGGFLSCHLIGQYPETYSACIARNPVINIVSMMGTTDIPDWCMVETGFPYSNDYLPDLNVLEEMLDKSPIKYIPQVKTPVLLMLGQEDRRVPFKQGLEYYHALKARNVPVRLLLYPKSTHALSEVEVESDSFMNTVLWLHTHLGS
Description: The carbamoyl triazole regioisomers were separated by gel chromatography and used for subsequent experiments. […] The compounds were screened at concentrations of 10 and 100 nM in mouse T-cell proteomes (FIG. 3e and FIG. 12).
Gel-based competitive ABPP experiments were performed as described previously. For competitive ABPP with FP-rhodamine, proteomes (1 mg/mL in PBS) were treated with FP-rhodamine (2 μM final concentration) in a […] total reaction volume. After 30 minutes at 25° C., the reactions were quenched with 2×SDS-PAGE loading buffer.
Proteomes were incubated with inhibitors for 30 minutes at 37° C. (in vitro) or for 4 h at 37° C. (in situ) at the indicated concentrations (n=3) prior to FP-rhodamine labeling. After SDS-PAGE and in-gel visualization, the percentage enzymatic activity remaining was determined by measuring the integrated optical intensity of the bands using IMAGER® software. IC50 values were determined from a dose-response curve generated using PRISM® software (GraphPad).

[3] = system: serine hydrolases (SHs) in mouse T-cell proteomes; assay: Gel-based competitive ABPP, mouse T-cell proteomes in vitro, SH reactivity profile; type: biochemical; settings: 100 nM, 30 minutes at 37° C.
ABHD11 [4] = target: T1, ABHD11; assay: ABPP-SILAC in living mouse T-cells; settings: 3 nM inhibitor, 4 h
ABHD11 [5] = target: T1, ABHD11; assay: In situ inhibition in cultured mouse T-cells, gel-based competitive ABPP; type: cell-based; settings: 4 h at 37° C.; read-out: potency of ABHD11 inactivation in cultured T-cells
[6] = system: serine hydrolases in mouse tissues; assay: In vivo ABPP analysis of tissues from KLH25-treated mice; settings: 25 mg/kg in PEG300, i.p., about 4 hours
Description: To assess the degree to which KLH25 is active in vivo, mice were treated with the compound for about 4 hours (25 mg/kg in PEG300, administered intraperitoneally, i.p.), sacrificed, and tissues were harvested for ABPP analysis.

DAGLA = target: T4, DAGLA (Mus musculus, UniProt Q6WQJ1); assay: Activity against recombinant DAGLA; type: biochemical
T4 construct: Full-length cDNAs encoding serine hydrolases were purchased from Open Biosystems; V5; host or cells: HEK293T
T4 sequence (Q6WQJ1 whole entry): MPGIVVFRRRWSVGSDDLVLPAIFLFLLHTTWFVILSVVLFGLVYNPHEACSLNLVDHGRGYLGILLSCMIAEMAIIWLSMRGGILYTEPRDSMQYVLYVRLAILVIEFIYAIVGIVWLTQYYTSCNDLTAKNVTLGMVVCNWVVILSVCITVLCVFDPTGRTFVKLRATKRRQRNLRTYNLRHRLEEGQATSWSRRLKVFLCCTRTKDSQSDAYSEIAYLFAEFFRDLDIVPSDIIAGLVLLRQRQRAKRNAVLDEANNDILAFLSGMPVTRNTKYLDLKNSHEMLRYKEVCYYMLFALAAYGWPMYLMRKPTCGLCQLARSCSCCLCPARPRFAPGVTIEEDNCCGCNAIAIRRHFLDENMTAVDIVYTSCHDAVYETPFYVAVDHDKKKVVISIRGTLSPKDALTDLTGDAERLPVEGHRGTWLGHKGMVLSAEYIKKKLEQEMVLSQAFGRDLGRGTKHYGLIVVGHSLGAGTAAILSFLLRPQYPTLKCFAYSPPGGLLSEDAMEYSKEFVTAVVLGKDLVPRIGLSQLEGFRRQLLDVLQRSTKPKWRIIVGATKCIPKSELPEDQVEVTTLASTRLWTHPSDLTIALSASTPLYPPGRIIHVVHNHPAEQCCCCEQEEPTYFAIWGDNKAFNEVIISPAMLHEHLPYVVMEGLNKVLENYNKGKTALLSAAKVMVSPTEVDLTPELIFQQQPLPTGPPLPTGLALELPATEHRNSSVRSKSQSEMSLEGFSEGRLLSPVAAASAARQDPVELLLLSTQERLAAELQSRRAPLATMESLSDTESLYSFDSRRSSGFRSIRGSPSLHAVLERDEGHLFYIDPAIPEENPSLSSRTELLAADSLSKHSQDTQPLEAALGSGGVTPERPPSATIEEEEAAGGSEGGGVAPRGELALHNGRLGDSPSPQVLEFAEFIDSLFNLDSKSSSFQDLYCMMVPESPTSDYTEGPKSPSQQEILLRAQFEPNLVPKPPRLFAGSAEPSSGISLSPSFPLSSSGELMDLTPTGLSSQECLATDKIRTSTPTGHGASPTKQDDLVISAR

COCC1CCCCN1C(=O)n1cc(C(O)(c2ccccc2)c2ccccc2)nn1 (stereo not shown) [N1 AA44-2]
IC50 (ABHD11 [1]): ~58 nM

O=C(N1CCCC1)n1ncc(-c2ccc(Br)cc2)n1 [N2 AA80-1]
IC50 (PAFAH2): 5 nM

O=C(N1CCCCC1Cc1ccccc1)n1cc(C(O)(c2ccccc2)c2ccccc2)nn1 (stereo not shown) [AA43-2]
off-target activity / selectivity against other serine hydrolases [2]: off-target activity against several other serine hydrolases, notably ABHD6, KIAA1363, and LYPLA1/2 | IC50 (DAGLB): ~200 nM | activity against DAGLB (DAGLB): completely blocked probe-labeling of DAGLB

CC(C)CC(O)(CC(C)C)c1cn(C(=O)N2CCCC2)nn1 [N1 AA74-1]
IC50 (APEH): ~8 nM

COCC1CCCCN1C(=O)n1ncc(C(O)(c2ccccc2)c2ccccc2)n1 (stereo not shown) [AA44-2]
cross-reactivity with other SHs [3]: no cross-reactivity with APEH, PAFAH2, or other SHs | inhibition of ABHD11 (ABHD11 [1]; 10 nM): complete inactivation | IC50 (ABHD11 [1]): 1 nM | ABHD11 activity blocked (ABHD11 [4]): > 95% and > 97% | IC50 (ABHD11 [5]): 0.14 to 0.17 nM

O=C(N1CCCCC1Cc1ccccc1)n1cc(-c2ccc(Br)cc2)nn1 (stereo not shown) [KT116]
potency against DAGLB relative to KT117 (DAGLB): greater than 5 fold

CCCCCCCCCCC[C@@H](C[C@@H]1OC(=O)[C@H]1CCCCCC)OC(=O)[C@H](CC(C)C)NC=O [THL, tetrahydrolipstatin, reference compound]
activity against DAGLB (DAGLB): blocked

O=C(N1CCCCC1Cc1ccccc1)n1cc(-c2ccc(OC(F)(F)F)cc2)nn1 (stereo not shown) [KLH25]
inhibition of ABHD6 and FAAH in vivo [6]: Potent inhibition of ABHD6 and FAAH | inhibition of endogenous DAGLA or DAGLB in vivo [6]: No inhibition of protein bands corresponding to endogenous DAGLA or DAGLB | activity against DAGLA (DAGLA): exhibited activity against both DAGL enzymes | off-target activity / selectivity against other serine hydrolases [2]: negligible activity against LYPLA1, LYPLA2, and PAFAH2 | activity against DAGLB (DAGLB): significantly more potent against DAGLB in comparison to AA43-2

O=C(N1CCCC1)n1cc(-c2ccc(Br)cc2)nn1 [N1 AA80-1]
IC50 (PAFAH2): 11 nM
